Assay results as given in ChEMBL document CHEMBL1201862, “PubChem BioAssay data set” (2004).
Each block holds one compound with its values, some of them ahead of it. Activity calls are given as the source filed them.

Experiments:
Type in all cases: functional
[1] = molecular target: T1, Corticotropin-releasing factor receptor 2/Corticotropin-releasing factor-binding protein (Homo sapiens, UniProt P24387+Q13324); test: Dose Response confirmation of uHTS hits for small molecule antagonists of the CRF-binding protein and CRF-R2 receptor complex.; conditions: read-out: IC50_Mean
T1 sequence (Q13324 whole entry): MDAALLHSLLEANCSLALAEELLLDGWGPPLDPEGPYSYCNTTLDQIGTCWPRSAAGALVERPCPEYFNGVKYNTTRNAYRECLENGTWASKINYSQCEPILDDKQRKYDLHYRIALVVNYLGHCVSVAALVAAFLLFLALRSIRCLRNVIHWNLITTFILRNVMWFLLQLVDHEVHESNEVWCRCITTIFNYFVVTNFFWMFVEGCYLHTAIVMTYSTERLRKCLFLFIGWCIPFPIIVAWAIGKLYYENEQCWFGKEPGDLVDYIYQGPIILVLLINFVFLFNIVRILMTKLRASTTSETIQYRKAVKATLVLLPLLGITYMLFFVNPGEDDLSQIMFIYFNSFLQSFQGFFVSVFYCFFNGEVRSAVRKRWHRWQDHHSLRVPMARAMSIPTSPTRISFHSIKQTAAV
T1 sequence (P24387 whole entry): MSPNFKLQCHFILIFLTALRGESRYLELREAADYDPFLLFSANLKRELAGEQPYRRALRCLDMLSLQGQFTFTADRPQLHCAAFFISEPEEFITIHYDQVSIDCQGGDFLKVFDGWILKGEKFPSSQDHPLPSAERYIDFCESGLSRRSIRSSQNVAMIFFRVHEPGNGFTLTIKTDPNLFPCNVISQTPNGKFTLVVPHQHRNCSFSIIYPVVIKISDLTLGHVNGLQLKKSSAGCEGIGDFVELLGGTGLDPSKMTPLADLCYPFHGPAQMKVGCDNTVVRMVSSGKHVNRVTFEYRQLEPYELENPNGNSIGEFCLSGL

[2] = molecular target: T1, Corticotropin-releasing factor receptor 2/Corticotropin-releasing factor-binding protein; test: activators of CRF receptor 2 with binding protein – uHTS hits, confirmation (AID 602473); conditions: read-out: EC50_Mean
[3] = molecular target: T2, Calpain-2 catalytic subunit (Sus scrofa, UniProt P43367); test: m-calpain protease blockers, concentration series – biochemical, fluorogenic peptide substrate, dose response (AID 1420)
T2 sequence (P43367 whole entry): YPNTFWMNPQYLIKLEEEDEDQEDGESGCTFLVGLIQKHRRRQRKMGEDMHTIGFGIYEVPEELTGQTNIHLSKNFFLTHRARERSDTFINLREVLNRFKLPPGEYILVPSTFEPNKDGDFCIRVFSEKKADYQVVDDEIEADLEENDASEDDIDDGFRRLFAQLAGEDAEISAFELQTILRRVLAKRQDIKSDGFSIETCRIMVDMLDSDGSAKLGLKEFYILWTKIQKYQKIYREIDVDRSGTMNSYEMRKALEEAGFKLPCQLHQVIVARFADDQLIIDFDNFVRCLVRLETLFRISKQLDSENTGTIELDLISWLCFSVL

[4] = molecular target: T3, Protein skinhead-1 (Caenorhabditis elegans, UniProt P34707)
T3 sequence (P34707 whole entry): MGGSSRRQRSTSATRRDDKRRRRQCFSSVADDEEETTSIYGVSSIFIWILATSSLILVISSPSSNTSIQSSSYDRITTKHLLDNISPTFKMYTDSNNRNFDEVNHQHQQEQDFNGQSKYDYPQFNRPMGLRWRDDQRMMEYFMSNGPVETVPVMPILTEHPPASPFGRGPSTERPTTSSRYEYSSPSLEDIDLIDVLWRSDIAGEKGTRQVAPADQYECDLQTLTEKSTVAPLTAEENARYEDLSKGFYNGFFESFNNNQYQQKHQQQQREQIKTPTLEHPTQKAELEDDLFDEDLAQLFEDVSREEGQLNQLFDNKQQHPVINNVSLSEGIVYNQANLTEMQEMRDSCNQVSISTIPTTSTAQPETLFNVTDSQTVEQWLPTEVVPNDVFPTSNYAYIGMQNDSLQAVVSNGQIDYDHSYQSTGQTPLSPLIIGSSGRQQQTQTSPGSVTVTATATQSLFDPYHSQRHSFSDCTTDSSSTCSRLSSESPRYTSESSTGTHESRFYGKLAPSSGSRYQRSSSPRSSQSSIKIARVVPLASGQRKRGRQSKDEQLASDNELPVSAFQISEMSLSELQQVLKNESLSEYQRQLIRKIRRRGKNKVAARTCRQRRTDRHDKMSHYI

[5] = Luminescence Cell-Based Dose Response HTS to Identify Activators of Luciferase Translation or Activity in H4 […] Cells. [Related pubchem assays: 1829 (Project Summary), 1814 (Primary HTS)]
[6] = molecular target: T4, Fatty acid synthase (Homo sapiens, UniProt P49327); test: inhibition of human FAS-TE enzyme activity – biochemical, endpoint fluorescence intensity, uHTS hits, dose response (AID 624327);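 note: fluorescence from hydrolysis of an O-methyl fluorescein acyl ester substrate by the enzyme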
[7] = molecular target: T4, Fatty acid synthase; test: inhibition of human FAS-TE enzyme activity – biochemical, kinetic fluorescence intensity, dose response (AID 624326);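 note: rate of fluorescence rise from hydrolysis of a fluorogenic O-methyl fluorescein ester substrate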

T4 sequence (P49327 whole entry): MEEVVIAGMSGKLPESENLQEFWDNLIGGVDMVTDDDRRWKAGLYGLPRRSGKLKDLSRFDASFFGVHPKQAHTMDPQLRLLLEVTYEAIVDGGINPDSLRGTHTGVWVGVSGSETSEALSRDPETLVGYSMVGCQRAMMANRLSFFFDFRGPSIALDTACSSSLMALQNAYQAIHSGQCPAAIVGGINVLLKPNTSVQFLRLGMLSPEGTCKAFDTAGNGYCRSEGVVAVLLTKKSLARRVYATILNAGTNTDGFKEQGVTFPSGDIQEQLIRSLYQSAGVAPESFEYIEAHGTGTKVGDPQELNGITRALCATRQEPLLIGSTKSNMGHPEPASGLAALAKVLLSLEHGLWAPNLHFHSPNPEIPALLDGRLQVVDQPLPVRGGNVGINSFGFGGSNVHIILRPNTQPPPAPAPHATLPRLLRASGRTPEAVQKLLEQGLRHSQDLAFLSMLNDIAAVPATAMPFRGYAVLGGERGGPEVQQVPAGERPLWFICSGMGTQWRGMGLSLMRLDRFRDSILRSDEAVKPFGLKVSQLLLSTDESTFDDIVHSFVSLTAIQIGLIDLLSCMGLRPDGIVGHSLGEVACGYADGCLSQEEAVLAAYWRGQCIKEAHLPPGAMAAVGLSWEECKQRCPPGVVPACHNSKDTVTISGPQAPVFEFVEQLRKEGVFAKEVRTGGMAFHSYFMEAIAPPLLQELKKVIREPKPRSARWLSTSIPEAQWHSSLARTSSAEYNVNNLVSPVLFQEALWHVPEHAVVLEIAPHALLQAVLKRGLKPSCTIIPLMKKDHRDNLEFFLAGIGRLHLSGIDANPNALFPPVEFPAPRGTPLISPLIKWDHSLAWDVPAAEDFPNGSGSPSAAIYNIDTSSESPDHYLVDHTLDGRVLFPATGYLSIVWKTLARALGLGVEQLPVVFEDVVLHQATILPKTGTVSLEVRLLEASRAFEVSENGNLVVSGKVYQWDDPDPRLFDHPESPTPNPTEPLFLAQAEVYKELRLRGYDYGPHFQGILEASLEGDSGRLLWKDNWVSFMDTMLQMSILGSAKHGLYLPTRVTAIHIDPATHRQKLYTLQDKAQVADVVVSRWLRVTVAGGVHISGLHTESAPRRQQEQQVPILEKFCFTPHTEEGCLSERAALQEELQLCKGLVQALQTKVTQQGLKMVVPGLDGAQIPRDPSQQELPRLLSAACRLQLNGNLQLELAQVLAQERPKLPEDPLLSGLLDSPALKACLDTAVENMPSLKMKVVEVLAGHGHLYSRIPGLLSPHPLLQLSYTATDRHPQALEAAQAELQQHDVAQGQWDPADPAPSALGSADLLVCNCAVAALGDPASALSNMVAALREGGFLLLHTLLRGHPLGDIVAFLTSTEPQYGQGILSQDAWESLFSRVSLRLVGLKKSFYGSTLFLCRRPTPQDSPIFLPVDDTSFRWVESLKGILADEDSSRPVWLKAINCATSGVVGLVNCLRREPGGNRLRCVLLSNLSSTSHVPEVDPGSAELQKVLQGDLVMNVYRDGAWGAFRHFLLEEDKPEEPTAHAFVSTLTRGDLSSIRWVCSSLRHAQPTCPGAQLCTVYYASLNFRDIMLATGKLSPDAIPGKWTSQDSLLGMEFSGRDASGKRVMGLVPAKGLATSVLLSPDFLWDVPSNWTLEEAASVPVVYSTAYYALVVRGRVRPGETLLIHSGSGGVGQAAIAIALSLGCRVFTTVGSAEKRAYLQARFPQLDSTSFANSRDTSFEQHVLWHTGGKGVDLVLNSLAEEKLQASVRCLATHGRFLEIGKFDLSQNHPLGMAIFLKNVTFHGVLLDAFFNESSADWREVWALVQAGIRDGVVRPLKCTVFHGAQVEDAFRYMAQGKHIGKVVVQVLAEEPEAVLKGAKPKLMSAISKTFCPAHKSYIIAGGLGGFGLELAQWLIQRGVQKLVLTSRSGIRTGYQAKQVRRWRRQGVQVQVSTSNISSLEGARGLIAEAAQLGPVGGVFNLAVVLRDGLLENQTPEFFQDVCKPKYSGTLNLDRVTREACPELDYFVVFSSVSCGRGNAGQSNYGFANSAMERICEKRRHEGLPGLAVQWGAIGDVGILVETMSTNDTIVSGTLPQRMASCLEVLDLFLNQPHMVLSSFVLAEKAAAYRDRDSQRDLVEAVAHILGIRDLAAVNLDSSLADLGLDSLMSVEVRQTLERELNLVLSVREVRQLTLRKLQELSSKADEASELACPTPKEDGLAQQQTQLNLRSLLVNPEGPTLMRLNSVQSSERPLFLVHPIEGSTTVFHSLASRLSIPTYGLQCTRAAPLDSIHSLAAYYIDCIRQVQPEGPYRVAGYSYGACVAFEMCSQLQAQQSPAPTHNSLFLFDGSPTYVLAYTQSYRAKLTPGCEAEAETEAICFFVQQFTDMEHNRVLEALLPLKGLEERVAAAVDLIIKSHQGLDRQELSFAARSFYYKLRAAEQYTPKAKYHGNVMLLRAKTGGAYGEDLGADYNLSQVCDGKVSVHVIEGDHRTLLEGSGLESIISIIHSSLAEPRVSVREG

- IC50 [3]: 4.01 µM (not active)
SMILES: CCc1ccc(OCc2nnc(S)n2Cc2ccccc2)cc1

- IC50 [4]: 21.3 µM (active)
SMILES: O=c1c2ccccc2ccc2ccccc12

- IC50 [3]: > 50 µM (not active)
SMILES: Cn1nc(C(=O)OCC(=O)N2CCc3ccccc32)c2ccccc2c1=O

- IC50 [6]: 15.9 µM (active)
- IC50 [7]: 19.4 µM (active)
SMILES: CCN(CC)c1cc2nonc2c2nonc12

- IC50 [3]: > 50 µM (not active)
SMILES: O=C(CN1C(=O)/C(=C/c2cccc(Br)c2)SC1=S)NC1=NCCS1

- IC50 [4]: > 100 µM (inactive)
SMILES: O=C(CSc1nnc(COc2ccc(Cl)cc2)o1)NC1CC2CCC1C2 (configuration not stated)

- IC50 [4]: > 100 µM (inactive)
SMILES: COc1ccc2cc(N3CCCC3=O)ccc2c1

- IC50 [4]: > 100 µM (inactive)
SMILES: Cc1cc(N2CCOCC2)nc2ccc(NC(=O)C3CCC(C)CC3)cc12 (configuration not stated)

- IC50 [6]: 0.645 µM (active)
- IC50 [7]: 0.846 µM (active)
SMILES: CCN(CC)C(=O)C1CCCN(c2ccc([N+](=O)[O-])cc2/C=N/NC(=O)c2ccccc2)C1 (configuration not stated)

- IC50 [6]: 13.7 µM (active)
- IC50 [7]: 10.3 µM (active)
SMILES: C/C(=N\Nc1ccccn1)c1ccc(S(=O)(=O)NCc2ccco2)cc1

More lines, now with the values behind:

SMILES: O=C(O)C1CC(=O)N(CCOc2ccccc2)C1 (configuration not stated)
- IC50 [1]: > 47.1 µM (inactive)
- EC50 [2]: > 53 µM (inactive)

SMILES: O=C(CSc1ccccn1)C12CC3CC(CC(C3)C1)C2
- IC50 [3]: > 50 µM (not active)

SMILES: O=C(NCCc1ccccc1)c1ccc(Cl)nc1
- EC50 [5]: 0.155 µM (inconclusive)

SMILES: O=C(CCNC(=O)c1ccc([N+](=O)[O-])cc1)NC1CCCCCC1
- IC50 [6]: 8.77 µM (active)
- IC50 [7]: 7.06 µM (active)

SMILES: C[C@@H](NC(=O)c1[nH]cnc1C(=O)N[C@@H](CCCCNC(=O)OC(C)(C)C)C(=O)OC(C)(C)C)c1ccccc1
- IC50 [3]: 8.84 µM (not active)

SMILES: C=C1CCC[C@]2(C)C[C@H]3OC(=O)C(CNCCN(C)C)[C@H]3CC12 (some centres not stated)
- IC50 [4]: > 100 µM (inactive)

SMILES: O=c1cc(-c2ccccc2)ss1
- IC50 [1]: > 47.1 µM (inactive)
- EC50 [2]: > 53 µM (inactive)

SMILES: COc1ccc([N+](=O)[O-])cc1/C=N/NC(=O)/C(=C\c1cccs1)NC(=O)c1ccccc1
- IC50 [6]: 2.62 µM (active)
- IC50 [7]: 1.97 µM (active)

SMILES: O=C(CCN1CCCCCC1)Nc1ccccc1F
- IC50 [4]: > 100 µM (inactive)

SMILES: CNC(=S)N/N=C/C1=CCC2CC1C2(C)C (configuration not stated)
- IC50 [3]: > 50 µM (not active)
